{"source": "paper PMC5192466", "about": "“Kunitz-Type Peptide HCRG21 from the Sea Anemone Heteractis crispa Is a Full Antagonist of the TRPV1 Receptor” (Marine Drugs, 2016)", "key": {"[1]": {"test_system": "rKv1.1", "test": "Kv1.1 currents, two-electrode voltage-clamp in Xenopus laevis oocytes", "type": "cell-based", "conditions": "10 μM peptide, n ≥ 3; holding −90 mV, 500 ms to 0 mV; ND96 pH 7.4", "experimental": "(§1) In order to characterize HCRG21 functionally, recombinant HCRG21 was, at a concentration of 10 μM, tested for its activity against an 8 voltage-gated potassium channels (Kv1.1–Kv1.6, hERG, and Shaker IR) and the vanilloid receptor 1 (TRPV1).\n(§2) Figure 4 Activity of rHCRG21 on Kv channels expressed in X. laevis oocytes. Traces shown are representative of at least three independent experiments (n ≥ 3). The dotted line indicates the zero current level. The asterisk (*) distinguishes the steady-state current after application of 10 μM peptide.\n(§3) For the expression of rKv1.1, hKv1.3, rKv1.4, rKv1.5, rKv1.6, Shaker IR, hERG, and TRPV1 in Xenopus oocytes, the linearized plasmids were transcribed using the T7 or SP6 mMESSAGE-mMACHINE transcription kit (Ambion, Austin, TX, USA). The harvesting of stage V–VI oocytes from anaesthetized female Xenopus laevis frog was previously described. […]\n(§4) Two-electrode voltage-clamp recordings were performed at room temperature (18–22 °C) using a Geneclamp 500 amplifier (Molecular Devices, Sunnyvale, CA, USA) controlled by a pClamp data acquisition system (Axon Instruments, Foster City, CA, USA). Whole cell currents from oocytes were recorded 1–4 days after injection. […] TRPV1 currents were measured in ND96 solution using a protocol of −90 mV during 400 s. […]"}, "[2]": {"test_system": "Kv1.2", "test": "Kv1.2 currents, two-electrode voltage-clamp in Xenopus laevis oocytes", "type": "cell-based", "conditions": "10 μM peptide, n ≥ 3; holding −90 mV, 500 ms to 0 mV; ND96 pH 7.4", "experimental": "as §1, §2\nTwo-electrode voltage-clamp recordings were performed at room temperature (18–22 °C) using a Geneclamp 500 amplifier (Molecular Devices, Sunnyvale, CA, USA) controlled by a pClamp data acquisition system (Axon Instruments, Foster City, CA, USA). Whole cell currents from oocytes were recorded 1–4 days after injection. Bath solution composition was ND96 (in mM): NaCl, 96; KCl, 2; CaCl2, 1.8; MgCl2, 2, and HEPES, 5 (pH 7.4). Voltage and current electrodes were filled with 3 M KCl. Resistances of both electrodes were kept between 0.8 and 1.5 MΩ. The elicited currents were filtered and sampled at, respectively, 1 kHz and 10 kHz (for potassium currents) and at, respectively, 0.2 kHz and 0.5 kHz (for TRPV1 currents), using a four-pole low-pass Bessel filter. […] TRPV1 currents were measured in ND96 solution using a protocol of −90 mV during 400 s. […]"}, "[3]": {"test_system": "Shaker IR", "test": "Shaker IR currents, two-electrode voltage-clamp in Xenopus laevis oocytes", "type": "cell-based", "conditions": "10 μM peptide, n ≥ 3; holding −90 mV, 500 ms to 0 mV; ND96 pH 7.4", "experimental": "as §1, §2, §3, §4"}, "[4]": {"molecular_target": "trypsin", "test": "Trypsin inhibition (Dixon method, BAPNA substrate)", "type": "biochemical", "experimental": "(§5) The trypsin/α-chymotrypsin inhibitory activity of the peptide was tested through the standard procedure using N-α-benzoyl-D,L-arginine p-nitroanilide hydrochloride (BAPNA) and ethyl ester of N-benzoyl-L-tyrosine (BTEE) as a substrates, respectively. Determination of the trypsin/α-chymotrypsin inhibition constants of rHCRG21 was performed according to the method of Dixon using substrates concentrations of 133 and 65 mM. The concentration of both enzymes in the reaction mixture was 215 nM. Concentrations of the tested peptide ranged from 0 up to 3.2 mM. The constants were calculated based on the results of three parallel experiments. Computational error limits are in the range of 0.1%–0.5%."}, "[5]": {"test_system": "rKv1.6", "test": "Kv1.6 currents, two-electrode voltage-clamp in Xenopus laevis oocytes", "type": "cell-based", "conditions": "10 μM peptide, n ≥ 3; holding −90 mV, 500 ms to 0 mV; ND96 pH 7.4", "experimental": "as §1, §2, §3, §4"}, "[6]": {"molecular_target": "α-chymotrypsin (Bos taurus, UniProt P00766)", "test": "α-Chymotrypsin inhibition (Dixon method, BTEE substrate)", "type": "biochemical", "conditions": "133 and 65 mM, enzyme 215 nM, peptide 0 up to 3.2 mM, three parallel experiments", "experimental": "as §5"}, "[7]": {"test_system": "hKv1.3", "test": "Kv1.3 currents, two-electrode voltage-clamp in Xenopus laevis oocytes", "type": "cell-based", "conditions": "10 μM peptide, n ≥ 3; holding −90 mV, 500 ms to 0 mV; ND96 pH 7.4", "experimental": "as §1, §2, §3, §4"}, "[8]": {"test_system": "rKv1.4", "test": "Kv1.4 currents, two-electrode voltage-clamp in Xenopus laevis oocytes", "type": "cell-based", "conditions": "10 μM peptide, n ≥ 3; holding −90 mV, 500 ms to 0 mV; ND96 pH 7.4", "experimental": "as §1, §2, §3, §4"}, "[9]": {"molecular_target": "T1, TRPV1 (Rattus norvegicus, UniProt O35433)", "T1 construct": "expressed in transfected cells; host or cells: Xenopus laevis oocytes injected with cRNA", "T1 sequence (O35433 whole entry)": "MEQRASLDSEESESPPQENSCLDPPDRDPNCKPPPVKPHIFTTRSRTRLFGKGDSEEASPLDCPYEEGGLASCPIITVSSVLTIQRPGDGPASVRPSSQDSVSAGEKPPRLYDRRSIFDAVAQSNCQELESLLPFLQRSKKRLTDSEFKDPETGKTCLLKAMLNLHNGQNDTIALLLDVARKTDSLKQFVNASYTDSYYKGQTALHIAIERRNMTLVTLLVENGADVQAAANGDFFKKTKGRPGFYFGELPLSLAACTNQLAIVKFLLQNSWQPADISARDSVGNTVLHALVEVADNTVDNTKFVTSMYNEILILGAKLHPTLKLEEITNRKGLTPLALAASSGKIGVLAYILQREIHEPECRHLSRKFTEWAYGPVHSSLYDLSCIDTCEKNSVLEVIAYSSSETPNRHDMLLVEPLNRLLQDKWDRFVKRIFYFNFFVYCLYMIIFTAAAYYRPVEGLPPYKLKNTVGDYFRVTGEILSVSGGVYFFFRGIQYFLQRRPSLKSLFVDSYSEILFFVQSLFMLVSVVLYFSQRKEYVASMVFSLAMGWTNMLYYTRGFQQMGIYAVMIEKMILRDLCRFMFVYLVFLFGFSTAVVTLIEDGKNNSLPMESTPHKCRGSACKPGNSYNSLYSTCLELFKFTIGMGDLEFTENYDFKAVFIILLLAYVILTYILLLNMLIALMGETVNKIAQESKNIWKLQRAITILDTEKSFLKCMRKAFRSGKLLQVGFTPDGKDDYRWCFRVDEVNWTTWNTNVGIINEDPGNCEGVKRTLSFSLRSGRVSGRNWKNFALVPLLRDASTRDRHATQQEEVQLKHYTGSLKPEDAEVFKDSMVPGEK", "test": "cell-based", "experimental": "To control the expression level of the TRPV1 channels, experiments were initiated with a first activation of TRPV1 with 1 μM capsaicin (CAP). […] This activation gives an inward non-selective cation current. […] Before application of HCRG21, cells are washed with ND96 to remove any presence of […]. […] However, when rHCRG21 was co-applied together with the agonist capsaicin, a reduction of the current was observed (Figure 5b). […] A concentration–response curve was constructed in order to assess the concentration dependence of the rHCRG21 induced effect. The IC50 value yielded 6.9 ± 0.4 μM (Figure 5c).\nFigure 5 Activity profile of rHCRG21 (10 μM) on the TRPV1 receptor. The figures show the results of one representative experiment. Whole-cell current traces in control and rHCRG21 conditions are shown. […] All data represent the average of at least three independent experiments (n ≥ 3) and are presented as mean ± standard error; (c) Concentration–response curve for rHCRG21 on TRPV1 receptor.\nFor the expression of rKv1.1, hKv1.3, rKv1.4, rKv1.5, rKv1.6, Shaker IR, hERG, and TRPV1 in Xenopus oocytes, the linearized plasmids were transcribed using the T7 or SP6 mMESSAGE-mMACHINE transcription kit (Ambion, Austin, TX, USA). The harvesting of stage V–VI oocytes from anaesthetized female Xenopus laevis frog was previously described. Oocytes were injected with 50 nL of cRNA at a concentration of 1 ng/nL using a micro-injector (Drummond Scientific, Broomall, PA, USA). The oocytes were incubated in a solution containing (in mM): NaCl, 96; KCl, 2; CaCl2, 1.8; MgCl2, 2 and HEPES, 5 (pH 7.4), supplemented with 50 mg/L gentamicin sulfate.\nTwo-electrode voltage-clamp recordings were performed at room temperature (18–22 °C) using a Geneclamp 500 amplifier (Molecular Devices, Sunnyvale, CA, USA) controlled by a pClamp data acquisition system (Axon Instruments, Foster City, CA, USA). Whole cell currents from oocytes were recorded 1–4 days after injection. Bath solution composition was ND96 (in mM): NaCl, 96; KCl, 2; CaCl2, 1.8; MgCl2, 2, and HEPES, 5 (pH 7.4). Voltage and current electrodes were filled with 3 M KCl. Resistances of both electrodes were kept between 0.8 and 1.5 MΩ. The elicited currents were filtered and sampled at, respectively, 1 kHz and 10 kHz (for potassium currents) and at, respectively, 0.2 kHz and 0.5 kHz (for TRPV1 currents), using a four-pole low-pass Bessel filter. Leak subtraction was performed using a –P/4 protocol. KV1.1–KV1.6 and Shaker currents were evoked by 500 ms depolarizations to 0 mV followed by a 500 ms pulse to −50 mV, from a holding potential of −90 mV. Current traces of hERG channels were elicited by applying a +40 mV prepulse for 2 s followed by a step to −120 mV for 2 s. TRPV1 currents were measured in ND96 solution using a protocol of −90 mV during 400 s. The recording chamber was perfused at a rate of 2 mL·min^−1 with a ND96 solution. As previously described, capsaicin (2 μM) was used as an agonist and capsazepine (10 μM) as an antagonist of TRPV1. Capsaicin and capsazepine were purchased from Sigma. All data represent at least 3 independent experiments (n ≥ 3) in which independent experiments represent experiments on different cells expressing TRPV1 channel and are presented as mean ± standard error."}, "[10]": {"test_system": "rKv1.5", "test": "Kv1.5 currents, two-electrode voltage-clamp in Xenopus laevis oocytes", "type": "cell-based", "conditions": "10 μM peptide, n ≥ 3; holding −90 mV, 500 ms to 0 mV; ND96 pH 7.4", "experimental": "as §1, §2, §3, §4"}, "[11]": {"test_system": "hERG", "test": "hERG currents, two-electrode voltage-clamp in Xenopus laevis oocytes", "type": "cell-based", "conditions": "10 μM peptide, n ≥ 3; +40 mV prepulse 2 s, then −120 mV 2 s; ND96 pH 7.4", "experimental": "as §1, §2, §3, §4"}}, "note": "“Also recorded” adds a separate entry of the source. Bridges are numbered along the chain shown (N, C = ends). Where no end group is shown, it is not given here."}
{"sequence": "RGICSEPKVVGPCTAYFRRFYFDSETGKCTPFIYGGCEGNGNNFETLRACRAICRA (disulfide 4-54, 13-37, 29-50 (inferred)) [rHCRG21]", "values": [{"measurement": "activity on Kv1.1", "setting": "[1]", "result": "did not exert any activity"}, {"measurement": "activity on Kv1.2", "setting": "[2]", "result": "did not exert any activity"}, {"measurement": "activity on Shaker IR", "setting": "[3]", "result": "did not exert any activity"}, {"measurement": "Ki", "setting": "[4]; Dixon method, BAPNA substrate, 133 and 65 mM, enzyme 215 nM, peptide 0 up to 3.2 mM, three parallel experiments", "result": 200, "unit": "nM"}, {"measurement": "Trypsin inhibitory activity of HPLC fraction", "setting": "[4]; fraction marked rHCRG21 after RP-HPLC", "result": "Trypsin inhibitory activity was detected"}, {"measurement": "activity on Kv1.6", "setting": "[5]", "result": "did not exert any activity"}, {"measurement": "Ki", "setting": "[6]", "result": 700, "unit": "nM"}, {"measurement": "activity on Kv1.3", "setting": "[7]", "result": "did not exert any activity"}, {"measurement": "activity on Kv1.4", "setting": "[8]", "result": "did not exert any activity"}, {"measurement": "inhibition of capsaicin-induced TRPV1 current", "setting": "[9]; 10 μM peptide co-applied with capsaicin (2 μM), −90 mV, ND96 pH 7.4, mean ± standard error, n ≥ 3", "result": "59.3% ± 4.3%"}, {"measurement": "effect on TRPV1 when administered alone", "setting": "[9]; 10 μM, in the absence of capsaicin", "result": "did not show any significant effect; also recorded: Lack of effect"}, {"measurement": "effect on TRPV1 when applied prior to capsaicin", "setting": "[9]; applied prior to any stimulation of capsaicin, data not shown", "result": "no activity was seen"}, {"measurement": "IC50", "setting": "[9]; co-applied with capsaicin (2 μM), −90 mV, ND96 pH 7.4, 18–22 °C, mean ± standard error, n ≥ 3, read-out: IC50, inhibition of capsaicin-induced TRPV1 current", "result": "6900 ± 400", "unit": "nM"}, {"measurement": "effect on TRPV1 channel (conclusion)", "setting": "[9]; electrophysiological data", "result": "strongly inhibits the TRPV1 channel"}, {"measurement": "activity on Kv1.5", "setting": "[10]", "result": "did not exert any activity"}, {"measurement": "activity on hERG", "setting": "[11]", "result": "did not exert any activity"}]}
